The record followed here is ChEMBL document CHEMBL4004877, “Synthesis and biological evaluation of chalcone, dihydrochalcone, and 1,3-diarylpropane analogs as anti-inflammatory agents” (Bioorg Med Chem Lett, 2017).

Values after ≈ are worked out from the molar mass of the structure shown.

Data set [1] concerns RAW264.7. The experiment in a line: Antiinflammatory activity in mouse RAW264.7 cells assessed as inhibition of LPS induced iNOS-dependent nitric oxide production at 10 ug/ml after 24 hrs by Griess assay relative to control. It counts as functional. Particulars: RAW264.7, 24 h.
The nature of data set [2]: Cytotoxicity against LPS-stimulated mouse RAW264.7 cells assessed as cell viability at 1.25 ug/ml after 24 hrs by MTT assay relative to control. Format: cell-based. Particulars: LPS-stimulated RAW264.7 cells, read-out: Activity.
The subject of data set [3] is RAW264.7. Kind of data set: Antiinflammatory activity in mouse RAW264.7 cells assessed as inhibition of LPS induced iNOS-dependent nitric oxide production at 2.5 ug/ml after 24 hrs by Griess assay relative to control. Format: functional. Particulars: RAW264.7, 24 h. A general note: The Griess reaction detects nitrite, a stable product of nitric oxide.
Data set [4] has as its system RAW264.7. The experiment in a line: Antiinflammatory activity in mouse RAW264.7 cells assessed as inhibition of LPS induced iNOS-dependent nitric oxide production at 5 ug/ml after 24 hrs by Griess assay relative to control. Particulars: RAW264.7, 24 h. Format: functional.
A short description of data set [5]: Cytotoxicity against LPS-stimulated mouse RAW264.7 cells assessed as cell viability at 2.5 ug/ml after 24 hrs by MTT assay relative to control. It counts as cell-based. Particulars: LPS-stimulated RAW264.7 cells, read-out: Activity. For orientation: Tetrazolium dyes change colour on reduction, which living cells bring about.
Data set [6] is described as follows: Cytotoxicity against LPS-stimulated mouse RAW264.7 cells assessed as cell viability at 10 ug/ml after 24 hrs by MTT assay relative to control. Format: cell-based. Particulars: LPS-stimulated RAW264.7 cells, read-out: Activity.
The test system of data set [7] is RAW264.7. Kind of data set: Antiinflammatory activity in mouse RAW264.7 cells assessed as inhibition of LPS induced iNOS-dependent nitric oxide production at 1.25 ug/ml after 24 hrs by Griess assay relative to control. Format: functional. Particulars: RAW264.7, 24 h.
Data set [8] deals with RAW264.7. Kind of data set: Antiinflammatory activity in mouse RAW264.7 cells assessed as inhibition of LPS induced iNOS-dependent nitric oxide production after 24 hrs by Griess assay. Format: functional, cell-based. Particulars: RAW264.7, 24 h.
A short description of data set [9]: Cytotoxicity against LPS-stimulated mouse RAW264.7 cells assessed as cell viability at 5 ug/ml after 24 hrs by MTT assay relative to control. It counts as cell-based. Particulars: LPS-stimulated RAW264.7 cells, read-out: Activity.

Turning to `COc1ccc(C(=O)/C=C/c2ccc3c(c2)OCO3)c(OC)c1`, in the data set on RAW264.7 [1], the inhibition at 10 µg/mL turned out to be 62.4%. Also, in data set [2], the viability at 24 h, 1.25 ug/ml turned out to be 92.7%. Moreover, the inhibition at 2.5 µg/mL in the data set on RAW264.7 [3] turned out to be 51.9%. Also, in the data set on RAW264.7 [4], the inhibition at 5 µg/mL was 52%. The viability at 24 h, 2.5 ug/ml in data set [5] was found to be 70.4%. Moreover, the viability at 24 h, 10 ug/ml in data set [6] is 66.2%. Besides, the inhibition at 1.25 µg/mL with RAW264.7 [7] worked out at 2.4%. Further, the IC50 in the data set on RAW264.7 [8] was determined as 2.43 µg/mL (≈ 7.78 µM). The viability at 24 h, 5 ug/ml in data set [9] stood at 69.2%.

On to `COc1cc(/C=C/C(=O)c2cccc(O)c2)ccc1O`, for which, in the data set on RAW264.7 [1], the inhibition at 10 µg/mL was found to be 12.2%. Further, in data set [2], the viability at 24 h, 1.25 ug/ml came out at 96.9%. Moreover, the inhibition at 2.5 µg/mL with RAW264.7 [3] worked out at 3.2%. In addition, the inhibition at 5 µg/mL in the data set with RAW264.7 [4] is 3.2%. In addition, the viability at 24 h, 2.5 ug/ml in data set [5] worked out at 94%. The viability at 24 h, 10 ug/ml in [6] is 62.6%. In the data set with RAW264.7 [7], the inhibition at 1.25 µg/mL was 3%. Also, the IC50 with RAW264.7 [8] is > 10 µg/mL. Also, the viability at 24 h, 5 ug/ml in [9] stood at 63.8%.

With `COc1ccc(CCCc2cc(OC)ccc2OC)c(O)c1`, the inhibition at 10 µg/mL in the data set on RAW264.7 [1] amounted to 50.2%. For the same compound, the viability at 24 h, 1.25 ug/ml in data set [2] amounted to 102%. In addition, the inhibition at 2.5 µg/mL in the data set on RAW264.7 [3] was determined as 31.7%. The inhibition at 5 µg/mL in the data set on RAW264.7 [4] stood at 36.4%. In addition, in data set [5], the viability at 24 h, 2.5 ug/ml came to 102%. Moreover, the viability at 24 h, 10 ug/ml in data set [6] amounted to 42.5%. In the data set with RAW264.7 [7], the inhibition at 1.25 µg/mL was determined as 6.2%. Further, in the data set with RAW264.7 [8], the IC50 is 9.9 µg/mL (≈ 32.7 µM). Further, the viability at 24 h, 5 ug/ml in [9] stood at 98.5%.

Take `COc1ccc(/C=C/C(=O)c2cccc(O)c2)cc1`: the viability at 24 h, 1.25 ug/ml in data set [2] was found to be 99%. Further, the inhibition at 2.5 µg/mL with RAW264.7 [3] is 2.1%. In addition, the viability at 24 h, 2.5 ug/ml in data set [5] is 99.1%. Also, the viability at 24 h, 10 ug/ml in [6] stood at 41.2%. Moreover, the inhibition at 1.25 µg/mL in the data set with RAW264.7 [7] was found to be 9.4%. Further, in data set [9], the viability at 24 h, 5 ug/ml is 63.3%.

Turning to `COc1ccc(C(=O)/C=C/c2ccc(OC)cc2OC)c(O)c1`, the inhibition at 10 µg/mL with RAW264.7 [1] turned out to be 2.8%. The viability at 24 h, 1.25 ug/ml in data set [2] worked out at 98.7%. Also, the inhibition at 2.5 µg/mL with RAW264.7 [3] is 7.4%. Besides, the inhibition at 5 µg/mL with RAW264.7 [4] is 12.2%. For the same compound, in [5], the viability at 24 h, 2.5 ug/ml amounted to 90.3%. The viability at 24 h, 10 ug/ml in [6] was found to be 68%. In addition, the inhibition at 1.25 µg/mL in the data set on RAW264.7 [7] worked out at 3.4%. For the same compound, the IC50 in the data set with RAW264.7 [8] is > 10 µg/mL. Moreover, the viability at 24 h, 5 ug/ml in data set [9] stood at 87.3%.

Turning to `COc1ccc(C(=O)/C=C/c2ccc(OC)c(OC)c2OC)c(O)c1`, the inhibition at 10 µg/mL in the data set with RAW264.7 [1] amounted to 0.1%. In data set [2], the viability at 24 h, 1.25 ug/ml stood at 98.5%. In the data set on RAW264.7 [3], the inhibition at 2.5 µg/mL was 9.7%. For the same compound, in the data set with RAW264.7 [4], the inhibition at 5 µg/mL is 4.1%. In addition, the viability at 24 h, 2.5 ug/ml in data set [5] amounted to 96.6%. Moreover, the viability at 24 h, 10 ug/ml in data set [6] was determined as 75.3%. For the same compound, the inhibition at 1.25 µg/mL in the data set on RAW264.7 [7] worked out at 9.1%. In addition, in the data set with RAW264.7 [8], the IC50 was > 10 µg/mL. The viability at 24 h, 5 ug/ml in data set [9] amounted to 72.5%.

With `COc1ccc(CCCc2ccc3c(c2)OCO3)c(OC)c1`, the inhibition at 10 µg/mL in the data set on RAW264.7 [1] was 44.6%. For the same compound, the viability at 24 h, 1.25 ug/ml in data set [2] amounted to 99.1%. Also, in the data set on RAW264.7 [3], the inhibition at 2.5 µg/mL is 20.1%. Further, the inhibition at 5 µg/mL with RAW264.7 [4] stood at 28%. The viability at 24 h, 2.5 ug/ml in data set [5] was found to be 97.7%. The viability at 24 h, 10 ug/ml in [6] came out at 94.7%. Moreover, the inhibition at 1.25 µg/mL in the data set on RAW264.7 [7] stood at 16.9%. Moreover, the IC50 in the data set with RAW264.7 [8] is > 10 µg/mL. The viability at 24 h, 5 ug/ml in data set [9] amounted to 97.2%.

Take `COc1ccc(/C=C/C(=O)c2ccc(OC)c(OC)c2)cc1`: the inhibition at 10 µg/mL in the data set on RAW264.7 [1] was 85.5%. Further, the viability at 24 h, 1.25 ug/ml in data set [2] is 97.2%. Further, in the data set with RAW264.7 [3], the inhibition at 2.5 µg/mL turned out to be 52%. For the same compound, in the data set on RAW264.7 [4], the inhibition at 5 µg/mL turned out to be 52.1%. In addition, the viability at 24 h, 2.5 ug/ml in data set [5] was 93.1%. The viability at 24 h, 10 ug/ml in [6] was 73.9%. In addition, the inhibition at 1.25 µg/mL in the data set on RAW264.7 [7] was 5.1%. In the data set with RAW264.7 [8], the IC50 came out at 2.43 µg/mL (≈ 8.15 µM). Further, the viability at 24 h, 5 ug/ml in data set [9] turned out to be 78.9%.

For `COc1ccc(CCC(=O)c2ccc(OC)c(OC)c2)cc1O`, the inhibition at 10 µg/mL in the data set on RAW264.7 [1] is 31%. Also, the viability at 24 h, 1.25 ug/ml in data set [2] was found to be 95.6%. For the same compound, the inhibition at 2.5 µg/mL in the data set on RAW264.7 [3] turned out to be 6.3%. In the data set on RAW264.7 [4], the inhibition at 5 µg/mL was 17.3%. Also, the viability at 24 h, 2.5 ug/ml in [5] is 92.1%. The viability at 24 h, 10 ug/ml in [6] was 83.9%. The inhibition at 1.25 µg/mL in the data set on RAW264.7 [7] was found to be 2.9%. In the data set with RAW264.7 [8], the IC50 was > 10 µg/mL. In addition, the viability at 24 h, 5 ug/ml in data set [9] stood at 91.8%.

Consider `COc1ccc(CCC(=O)c2ccc(O)c(OC)c2)cc1`, for which, in the data set on RAW264.7 [1], the inhibition at 10 µg/mL is 50.7%. The viability at 24 h, 1.25 ug/ml in data set [2] stood at 90%. Further, in the data set on RAW264.7 [3], the inhibition at 2.5 µg/mL came out at 12.2%. The inhibition at 5 µg/mL in the data set with RAW264.7 [4] came out at 26.1%. Further, in data set [5], the viability at 24 h, 2.5 ug/ml worked out at 92%. For the same compound, the viability at 24 h, 10 ug/ml in data set [6] turned out to be 86.5%. In the data set with RAW264.7 [7], the inhibition at 1.25 µg/mL is 2.9%. Moreover, the IC50 in the data set with RAW264.7 [8] was determined as 9.81 µg/mL (≈ 34.3 µM). In addition, the viability at 24 h, 5 ug/ml in data set [9] was found to be 89.8%.

What is called inhibition is the relative decrease from the control value, in per cent. For orientation: IC50 means the point on the concentration scale where inhibition reaches its midpoint.
